# According to publication PMC11583597, “Brain uptake pharmacokinetics of albiglutide, dulaglutide, tirzepatide, and DA5-CH in the search for new treatments of Alzheimer’s and Parkinson’s diseases” (Tissue Barriers, 2023):
# What was measured:
# Conditions in all cases: mouse, in vivo, iv
# [1] = set-up: species or system male CD-1 mice
# Procedure: Anesthetized mice were co-injected iv with 3 × 10^5 cpm-1×10^6 cpm ^125I/^14C-IRA and 5 × 10^5 cpm of ^99mTc-Alb in 0.2 ml BSA-LR with or without 1 μg of the non-radioactive IRA. Fifteen minutes after iv injection, blood was collected from the right carotid artery, and the whole brain was removed and weighed. Samples were counted for radioactivity. Results were expressed as delta B/S ratios in units of μl/g.
# [2] = Long-term (6 h) measurement of brain uptake; assay type: in vivo, male CD-1 mice
# Procedure: Substances that are enzymatically stable in blood and have slow clearance from the circulation can slowly enter the brain using the extracellular pathways.[63],[64] […] Albumin enters the brain by extracellular pathways,[70] and so we used albumin in two ways: we used ^99mTc-Alb circulating for 10 min to measure vascular space and ^99mTc-Alb circulating for 6 h to measure brain uptake by extracellular pathways. This is similar to the time-differential methodology developed by Poduslo and Curran to measure a substance’s vascular space and its uptake rate.[71] Following anesthetization, the jugular vein and right carotid artery were exposed. Mice were given an iv injection of 0.1% BSA-LR containing 1 × 10^6 cpm of ^125I-IRA or 5 × 10^5 cpm of ^99mTc-Alb, which circulated for 6 h. Mice receiving only the ^125I-IRA were given an injection of 5 × 10^5 cpm of ^99mTc-Alb 10 min prior to the end of the 6 h circulation time to act as a vascular marker. A separate set of mice received an iv injection of both 1 × 10^6 cpm of ^125I-IRA and 5 × 10^5 cpm of ^99mTc-Alb that circulated for 10 min. Following the 10 min or 6 h circulation time points, blood and brain were collected as described above. Thus, we had B/S ratios for ^99mTc-Alb measuring vascular space (10 min circulation time) and B/S ratios for ^99mTc-Alb measuring vascular space plus uptake by the extracellular pathways (6 h circulation time) which could be compared to the B/S ratios for the ^125I-IRAs after 10 min and 6 h of circulation.
# Immediately after counting the radioactivity, the blood and brains from the 10 min and 6 h time points were processed as described in Section 2.5 for in vivo stability. For further comparison, data from the 1 h time point were taken from the original pharmacokinetic uptake study. The ^125I-IRA brain % acid precipitation (%AP) was divided by the ^125I-IRA serum %AP at each time point to calculate the %AP B/S ratio. This value was multiplied by the B/S ratio for each ^125I-IRA to correct for degradation over the 10 min, 1 h, or 6 h time periods. […]
# [3] = set-up: species or system male CD-1 mice; remark: listed apart in the source
# Procedure: (§1) Following anesthetization, the jugular vein and right carotid artery were exposed. Mice were given a jugular vein injection of 0.2 ml BSA-LR containing 3 × 10^5 cpm-1×10^6 cpm of an ^125I/^14C-labeled IRA and 5 × 10^5 cpm of ^99mTc-Alb. Blood samples were collected from the carotid artery at various time points from 1 to 60 min after iv injection (see Figure 1). Mice were then decapitated, and their brains were removed and weighed. After clotting, the arterial blood was centrifuged at 3200 ×g for 10 min. Levels of radioactivity in serum (50 μl) and brain were measured in a gamma counter for ^125I and ^99mTc for 3 min. After ^99mTc decay, ^14C-DA5-CH samples were solubilized with Solvable (Sigma), transferred to scintillation vials containing Ecoscint (National Diagnostics) and ^14C was measured in a beta counter. Sample injection checks were taken throughout the course of the study to calculate the mean injected cpm/mouse. To determine the rate of ^125I/^14C-IRA clearance from the serum, the results were expressed as the percentage of an injected dose in each ml of serum (%Inj/ml), which was calculated by dividing the cpm in a ml of serum (cpm/ml serum) by the cpm injected into the mouse (cpm/Inj):
# (2) %Inj/ml=100×cpm/mlserum/meancpm/Inj
# The log(%Inj/ml) was plotted against time to calculate the rate of clearance from the serum. To calculate the half-time clearance in minutes, the inverse slope […] of the curve for each IRA was multiplied by 0.301 (log10[2]). The blood and brain cpm data were used for the measurement of brain influx and initial volume of distribution in brain as described in Section 2.7.
# [4] = Brain influx and initial volume of distribution (multiple-time regression analysis); set-up: species or system male CD-1 mice
# Procedure: as §1
# To calculate the blood-to-brain unidirectional influx constant (Ki), multiple-time regression analysis was used as first described by Patlak, Blasberg, and Fenstermacher.[67],[68] The brain/serum (B/S) ratios (μl/g) of the ^125I/^14C-IRA in each gram of brain were calculated from the data in Section 2.6 and plotted against their respective exposure times as previously applied by Rhea et al. 2018.[69] Exposure time differs from clock time in that exposure time corrects for clearance of the ^125I/^14C-IRA from blood and thus, better represents the amount of ^125I/^14C-IRA available for BBB transport at any given time. Delta B/S ratios were calculated by subtracting the vascular space as measured by the B/S ratio for ^99mTc-Alb from the B/S ratio for the respective ^125I/^14C-IRA. Thus, delta B/S ratios represent material that has been taken up by or has crossed the BBB. The slope of the linear portion of the relation between delta B/S ratios and exposure time defines Ki (μl/g-min) and is reported with its error term. This represents Model 1 for DA5-CH. The y-intercept of this linear portion of the relation defines Vi, (μl/g), the initial volume of distribution in brain at t = 0, which is the functional volume per unit brain mass of a soluble compound that exchanges rapidly and reversibly with plasma.[68] Vi consists of the vascular space (Vv) and any residual space after accounting for Vv and usually represents vascular binding (Vr). Since we correct each ^125I/^14C-IRA delta B/S for vascular space, our y-intercept values likely represent vascular binding. For DA5-CH, there appeared to be rapid, early transport that would indicate a Vr equal to 0. Therefore, using Vr equal to 0, we calculated an estimate of this new Ki and refer to it throughout the manuscript as Model 2.
structure (smiles),measurement,setting,value
CC[C@H](C)[C@H](NC(=O)[C@H](CC(C)C)NC(=O)[C@H](Cc1c[nH]c2ccccc12)NC(=O)[C@H](CCC(N)=O)NC(=O)[C@@H](NC(=O)[C@H](Cc1ccccc1)NC(=O)[C@H](C)NC(=O)[C@H](CCCCNC(=O)COCCOCCNC(=O)COCCOCCNC(=O)CC[C@H](NC(=O)CCCCCCCCCCCCCCCCCCC(=O)O)C(=O)O)NC(=O)[C@H](CCC(N)=O)NC(=O)[C@H](C)NC(=O)[C@@H](NC(=O)[C@H](CCCCN)NC(=O)[C@H](CC(=O)O)NC(=O)[C@H](CC(C)C)NC(=O)C(C)(C)NC(=O)[C@@H](NC(=O)[C@H](CO)NC(=O)[C@H](Cc1ccc(O)cc1)NC(=O)[C@H](CC(=O)O)NC(=O)[C@H](CO)NC(=O)[C@@H](NC(=O)[C@H](Cc1ccccc1)NC(=O)[C@@H](NC(=O)CNC(=O)[C@H](CCC(=O)O)NC(=O)C(C)(C)NC(=O)[C@@H](N)Cc1ccc(O)cc1)[C@@H](C)O)[C@@H](C)O)[C@@H](C)CC)[C@@H](C)CC)C(C)C)C(=O)N[C@@H](C)C(=O)NCC(=O)NCC(=O)N1CCC[C@H]1C(=O)N[C@@H](CO)C(=O)N[C@@H](CO)C(=O)NCC(=O)N[C@@H](C)C(=O)N1CCC[C@H]1C(=O)N1CCC[C@H]1C(=O)N1CCC[C@H]1C(=O)N[C@@H](CO)C(N)=O [Tirzepatide],"Whole Brain delta brain/serum ratio, Without unlabeled IRA",[1],-0.16 ± 0.13 µL/g
same,Amount present in brain at 6 h (AP corrected delta %Inj/g),[2],0.005 %Inj/g
same,Half-Time Serum Clearance (t1/2),[3],30.62 min
same,Brain influx within 1 h of iv injection (detection),[4],did not detect brain influx
